Test results taken from US7994402B2, “Method of increasing plant organ and seed size in a plant” (Monsanto Technology LLC, priority 2002, dated 2011).

Target: T1, A. thaliana protein molecule SEQ ID NO: 4 (His-tagged, from pMON63134) (Arabidopsis thaliana, UniProt Q9ZW18)
T1 construct: His-tag (N); made in house; host or cells: E. coli (pET-28b vector, plasmid pMON63134)
Test: Spectrophotometric reductase assay, consumption or production of NADPH at 340 nm
Assay type: biochemical
Text: Appropriate clones (as shown in FIGS. 4-7) expressing all four versions of above-mentioned proteins in E. coli were identified by appropriate antibiotic selection as described by the manufacturer (Novagen 441 Charmany Drive Madison, Wis., 53719, USA). Expressed protein bands of the predicted sizes were identified by analytical SDS poly acrylamide gel electrophoresis (Laemmli, U.K., Nature, 227, 680, 1970) to confirm the expression of desired protein. […] Protein obtained from the plasmid pMON63134 (FIG. 6) was chosen for assay work described below. Protein extracts were prepared by freeze thawing and sonication as described Cull and McHenry (Cull M and McHenry C. S. Methods in Enzymology 182, 147-153, 1990). Pellets were resuspended in an appropriate volume of either 50 mM Tris-HCl pH 7.4 250 mM NaCl and 500 μM EDTA with 0.05% CHAPS and 1 mM ABESF or 50 mM KH2PO4 pH-7.2 250 mM NaCl and 250 μM EDTA with 0.05% CHAPS and 1 mM ABESF, buffer. Crude extracts containing His-tagged protein were applied to equilibrated His-Trap (Pharmacia Piscataway, N.J.) columns and purified by standard procedures as described by the manufacturer of the columns. Steps included a 10 mM imidazole elution/wash and elution in 250 mM imidazole. As a result the Arabidopsis tagged protein was partially purified (approximately 85-90% by SDS-PAGE stained with Coomasie Blue). Purified samples were gel filtered into 50 mM KH2PO4 pH-7.2 250 mM NaCl and 250 μM EDTA, 10% glycerol and stored at −80° C. until use. Protein concentrations were 1.5 to 1.7 mg/mL, based on the method of Bradford (Bradford M, Anal Biochem, 72, 248, 1976 and Bio-Rad Laboratories Procedure bulletin 1123) with BSA standard (Bradford reagent and BSA was from Bio-Rad Laboratories Headquarters 1000 Alfred Nobel Drive Hercules, Calif. 94547). The assays described below used 10 or 15 uL of this solution (15 to 22 μg per reaction).
Spectrophotometric assays were used for determination of enzyme activities of purified proteins. Assays were based on earlier described methods (Portsteffen et al. Phyochemistry, 37, 391, 1994). […] Assays were performed in a Varian Cary 50 Bio spectrophotometer (Varian Instruments Inc. AA, ICP, UV, to Fluorescence Products 679 Springvale RoadMulgrave, Victoria 3170 Australia). All assays were run at 30° C. for 10 to 30 minutes in 1 mL volumes using 100 mM KH2PO4 pH 6.5, 250 μM EDTA or 50 mM KH2PO4 pH-7.2, 250 mM NaCl, and 250 μM EDTA as reaction buffer. If metals were added they were supplemented to reactions in cuvettes from 100 mM stocks of either ZnCl2 and or MgCl2. Substrates included those found in table 8. […] Controls contained no substrate to determine the background rate of consumption and degradation of NADPH. NADPH solutions were freshly made and checked by UV-vis for degradation. Enzyme solutions were supplemented with 1 mM MgCl2 and 1 mM Zn Cl2 which were at 1.5 to 1.7 mg/mL concentrations. The assays used 10 or 15 μl of this solution (ca. 15 to 22 μg per reaction). Stock solutions of the substrates (20 to 500 mM) were made up in a reaction buffer or as noted. Steroids solutions were made in 100% EtOH. From these stock solutions additions to the assays were made directly. Precipitation of steroids was observed. Thus, the soluble concentration of steroids in reaction mixture is not accurately known in each case. However, good estimate of substrate (sterol) concentration would be 100 to 200 μM for a saturated solution under these conditions. […] In addition to cell extract control, a substrate control was also employed because solutions of some substrates tested can have a lower pH at described assay conditions which may affect rates of NADPH degradation and enzyme activity under assay conditions.

T1 sequence (Q9ZW18 1-268): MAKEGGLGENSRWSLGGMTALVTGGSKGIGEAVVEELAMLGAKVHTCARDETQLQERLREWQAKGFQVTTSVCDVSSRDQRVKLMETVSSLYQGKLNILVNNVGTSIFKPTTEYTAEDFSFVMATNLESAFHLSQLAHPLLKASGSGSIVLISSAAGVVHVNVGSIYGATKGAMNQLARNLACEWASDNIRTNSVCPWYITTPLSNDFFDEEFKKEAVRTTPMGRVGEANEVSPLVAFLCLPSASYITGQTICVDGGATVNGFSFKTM

Compound: O=C1OC(CO)[C@H](O)C(O)C1O (stereo partly drawn) [δ-gluconolactone]
- Activity (substrate) (25 mM): No 25 mM

Compound: OCC(O)C(O)C(O)CO (stereo not drawn) [Arabinitol]
- Activity (substrate) (25 mM): No 25 mM

Compound: C[C@]12CCC(=O)CC1CCC1C2CC[C@]2(C)C(=O)CCC12 (stereo in doubt) [5α-androstane-3,17-dione]
- Activity (substrate) (100 μM): YES 100 μM

Compound: CN1C2CCC1CC(=O)C2 [Tropinone]
- Activity (substrate) (1 and 10 mM): No retested with new enzyme 1 and 10 mM

Compound: O=C(O)C(O)C(O)C(O)C(O)CO (stereo not drawn) [Potassium d-gluconate]
- Activity (substrate) (25 mM): No 25 mM

Compound: CN1C2CCC1CC(O)C2 (stereo not drawn) [Tropine]
- Activity (substrate) (1 and 10 mM): No retested with new enzyme 1 and 10 mM

Compound: OC[C@H]1O[C@@](CO)(O[C@H]2O[C@H](CO)[C@@H](O)[C@H](O)[C@H]2O)[C@@H](O)[C@@H]1O [Sucrose]
- Activity (substrate) (25 mM): No 25 mM

Compound: O=C1OC(CO)[C@@H](O)[C@H](O)C1O (stereo partly drawn) [Glucono 1,5 lactone]
- Activity (substrate) (25 mM): No 25 mM

Compound: C[C@]12CCC(=O)C=C1CCC1C2CC[C@]2(C)C(=O)CCC12 (stereo partly drawn) [4-androstene-3,17-dione]
- Activity (substrate) (100 μM): YES 100 μM

Compound: C=C1C[C@]23C[C@@]1(O)CC[C@H]2[C@@]12C=C[C@H](O)[C@@](C)(C(=O)O1)[C@H]2[C@@H]3C(=O)O [Gibberellic Acid (GA3)]
- Activity (substrate) (1 and 10 mM): No 1 and 10 mM

Compound: acetone
- Activity (substrate) (65 mM): Yes
- Activity (substrate) (at lower concentrations than 65 mM): Much lower

Compound: OCC1O[C@H](O)C(O)[C@@H](O)[C@@H]1O (stereo partly drawn) [D-Glucose]
- Activity (substrate) (25 mM): No 25 mM

Compound: isopropanol
- Activity (substrate) (68 mM, substrate for the reverse reaction): Yes 68 mM
- substrate quality compared with acetone (at same concentrations, reverse reaction): At high concentrations it is a substrate for the reverse reaction but at same concentrations is a poorer substrate than acetone indicating potential preference for the reductase activity under these conditions.
